From US12667567B2, “Method of preventing blast-induced loss of cochlear and vestibular hair cells and auditory spiral ganglion neurons” (Therapeutic Vision, Inc., priority 2024, dated 2026)
“And” between values parts separate entries of the source, which are not always exact repeats. Equal values may be shown once. “Also recorded” adds a separate entry of the source.

Key:
[1] = tested on: vestibular hair cells in the saccule; assay: Vestibular hair cell density in macula of the saccule after blast; assay type: in vivo, rat
Method: (§1) Blast wave exposure. All rats were exposed to 6 blasts presented once every 5 minutes using equipment and procedures similar to those previously described. (See Manohar, S., et al., Blast-induced hearing loss suppresses hippocampal neurogenesis and disrupts long term spatial memory. Hear Res, 2020. 395: p. 108022; Stachowiak, M. K., et al., Neurogenesis and Oligodendrogenesis in a Mouse Model of Blast-Induced Traumatic Brain Injury. Neurology and Neurobiology, 2020: p. 1-14; and Newman, A. J., et al., Low-cost blast wave generator for studies of hearing loss and brain injury: blast wave effects in closed spaces. J Neurosci Methods, 2015. 242: p. 82-92.) Each rat was anesthetized with an intraperitoneal injection of ketamine (50 mg/kg) and xylazine (6 mg/kg) and stable anesthesia was maintained with supplementary half-doses of anesthetics as needed to maintain a stable anesthetic state. Each anesthetized rat was placed in a wire-mesh cage 5 cm with the snout of the rat facing the front of the blast tube opening. The average blast peak pressure level was 186 dB peak SPL (±0.8 dB, SEM, ~39.9 kPa). The intensity was selected based on our prior study in which we found no evidence of tympanic membrane or ossicular damage in rats exposed at 188 dB pSPL (Newman, A. J. et al.), consistent with an earlier report. (Roberto, M., R. P. Hamernik, and G. A. Turrentine, Damage of the auditory system associated with acute blast trauma. Ann Otol Rhinol Laryngol Suppl, 1989. 140: p. 23-34)
(§2) Experimental groups. The rats were divided into four groups (n=6/group): (1) Blast alone (B), (2) Blast plus earplugs (BEP), (3) Blast plus HK-2 (BHK-2) and (4) Blast plus earplugs plus HK-2 (BEPHK-2). All rats had free access to water and standard lab chow except for the BHK-2 and BEPHK-2 groups that also received HK-2 as noted below.
(§3) HK-2 synthesis and administration. HK-2 was synthesized and evaluated for purity (>99%) as described previously. (Kawada, H. and P. F. Kador, Orally Bioavailable Metal Chelators and Radical Scavengers: Multifunctional Antioxidants for the Coadjutant Treatment of Neurodegenerative Diseases. J Med Chem, 2015. 58(22): p. 8796-805; U.S. Pat. No. 8,877,766 B2) Rats in the BHK-2 group and BEPHK-2 group were fed the same standard laboratory rat chow as the other two groups, however, the chow had been treated with HK-2 as described previously. (Chen, G. D., et al.; Manohar, S., et al., Combined antioxidants and anti-inflammatory therapies fail to attenuate the early and late phases of cyclodextrin-induced cochlear damage and hearing loss. Hear Res, 2022. 414: p. 108409.) HK-2 treated food was administered to rats starting 7-days prior to the blast wave exposure and continuing for 30-days following exposure. Based on the rat's daily food consumption, measured every 2 days together with body weight, the average oral consumption of HK-2 was ~50 mg/kg/day. (Id.)
(§4) Tissue preparation. Approximately 60-days after the blast wave exposure, the rats from all four groups were deeply anesthetized with ketamine (50 mg/kg, i.p.) and xylazine (6 mg/kg, i.p.) and decapitated. The temporal bones were quickly removed. Under a dissection microscope, openings were made in the cochlear apex, round window, and the oval window. […]

[2] = tested on: spiral ganglion neurons (SGN); assay: Blast-induced loss of spiral ganglion neurons in Rosenthal's canal; assay type: in vivo, rat; settings: for mean number of SGN per section: middle of basal turn, ~25 kHz
Method: as §1, §2
(§5) HK-2 synthesis and administration. HK-2 was synthesized and evaluated for purity (>99%) as described previously. (Kawada, H. and P. F. Kador, Orally Bioavailable Metal Chelators and Radical Scavengers: Multifunctional Antioxidants for the Coadjutant Treatment of Neurodegenerative Diseases. J Med Chem, 2015. 58(22): p. 8796-805; U.S. Pat. No. 8,877,766 B2) Rats in the BHK-2 group and BEPHK-2 group were fed the same standard laboratory rat chow as the other two groups, however, the chow had been treated with HK-2 as described previously. […] Based on the rat's daily food consumption, measured every 2 days together with body weight, the average oral consumption of HK-2 was ~50 mg/kg/day. […]

[3] = tested on: vestibular hair cells in the crista of the ampulla; assay: Vestibular hair cell density in crista ampullae of semicircular canals after blast; assay type: in vivo, rat
Method: as §1, with “The intensity was selected based on our prior study in which we found no evidence of tympanic membrane or ossicular damage in rats exposed at 188 dB pSPL (Newman, A. J. et al.), consistent with an earlier report. (Roberto, M., R. P. Hamernik, and G. A. Turrentine, Damage of the auditory system associated with acute blast trauma. Ann Otol Rhinol Laryngol Suppl, 1989. 140: p. 23-34)” left out
HK-2 synthesis and administration. HK-2 was synthesized and evaluated for purity (>99%) as described previously. […] Based on the rat's daily food consumption, measured every 2 days together with body weight, the average oral consumption of HK-2 was ~50 mg/kg/day. […]

inner hair cells (IHC) = assay: Blast-induced inner hair cell loss, cochleogram; assay type: in vivo, rat
Method: as §1, §2, §3, §4

outer hair cells (OHC) = assay: Blast-induced outer hair cell loss, cochleogram; assay type: in vivo, rat
Method: as §1, §2, §3, §4

[4] = tested on: noise-induced hearing loss and outer hair cell loss; settings: 95 dB SPL octave band noise, 8 h/d for 21 days; HK-2 before, during and after the exposure; cited from earlier work
[5] = tested on: auditory nerve fibers (ANF); assay: Blast-induced loss of auditory nerve fibers in habenula perforata; assay type: in vivo, rat; settings: for mean number of ANF/habenula perforata: middle of basal turn, ~25 kHz
Method: as §1, §2, §5

[6] = tested on: vestibular hair cells in the utricle; assay: Vestibular hair cell density in macula of the utricle after blast; assay type: in vivo, rat
Method: as §1, §2, §5

[7] = BEPHK-2 group (earplugs plus HK-2)
[8] = BHK-2 group, no blast-induced loss in this region
[9] = HK-2 oral 50 mg/kg/d, 60 d post-exposure, 50 mg/kg/day
[10] = BHK-2 group, 6 blasts 186 dB peak SPL, HK-2 oral 50 mg/kg/d from 7 d before to 30 d after blast, 60 d post-exposure, 50 mg/kg/day

Question: With O=C1CCC(=O)N1c1ncc(O)cn1 [HK-2, 1-(5-hydroxypyrimidin-2-yl) pyrrolidine-2,5-dione] as the compound, how does the “mean hair cell density, marginal region of the saccule” value [1, 7] read?
Answer: 123.0 /0.0108 mm^2

Question: What about the “mean vestibular hair cell density, striola of the saccule” value [1, 7] of the same compound?
Answer: 112.0 hair cell/0.0108 mm^2

Question: And the “mean vestibular hair cell density, striola of the saccule” value ([1]; BHK-2 group, B group 71.83)?
Answer: 102.7 hair cell/0.0108 mm^2

Question: What about the “mean hair cell density, marginal region of the saccule” value [1, 8] of the same compound?
Answer: 122.2 /0.0108 mm^2

Question: What about the “protection against blast-induced saccule (striola) hair cell loss (in words)” value [1, 9] of the same compound?
Answer: completely prevented; also recorded: restored hair cell densities to normal levels; also recorded: significant protection

Question: What about the “mean number of SGN per section” value [2, 7] of the same compound?
Answer: 41.8 SGN per section

Question: And the “mean number of SGN per section” value ([2]; BHK-2 group, B group ~9)?
Answer: 42.3 SGN per section

Question: What about the “protection against blast-induced SGN loss (in words)” value [2, 9] of the same compound?
Answer: completely prevented; also recorded: significant protection

Question: And the “increase of SGN versus blast alone” value ([2]; HK-2 treatment, 25 kHz region)?
Answer: ~ 3.7 fold

Question: And the “mean hair cell density, crista of the ampulla of the three semicircular canals” value [3, 7]?
Answer: 122.8 /0.0108 mm^2

Question: And the “mean hair cell density, crista of the ampulla of the three semicircular canals” value [3, 8]?
Answer: 121.8 /0.0108 mm^2

Question: And the IHC loss (inner hair cells (IHC); BEPHK-2 group (earplugs plus HK-2; range stated jointly with BEP group), base of the cochlea)?
Answer: 14-19%

Question: And the “reduction of total IHC loss compared to B group” value (inner hair cells (IHC); [10])?
Answer: 57% and ~ 57.3% and ~ 57%

Question: What about the “mean IHC loss” value (inner hair cells (IHC); BHK-2 group, middle of the cochlea) of the same compound?
Answer: ~ 20

Question: And the “mean IHC loss” value (inner hair cells (IHC); BHK-2 group, near the apex)?
Answer: 0%

Question: And the “mean IHC loss” value (inner hair cells (IHC); BHK-2 group, near the base of the cochlea)?
Answer: ~ 67%

Question: What about the “OHC loss less than in BEP group” value (outer hair cells (OHC); BEPHK-2 group (earplugs plus HK-2), extreme base) of the same compound?
Answer: about 10%

Question: What about the “reduction of total OHC loss compared to B group” value (outer hair cells (OHC); [10]) of the same compound?
Answer: 67% and ~ 67%

Question: And the “mean OHC loss” value (outer hair cells (OHC); BHK-2 group, 10% location (distance from apex))?
Answer: 10%

Question: And the “mean OHC loss” value (outer hair cells (OHC); BHK-2 group, 70% location (distance from apex))?
Answer: ~ 39%

Question: And the “mean OHC loss” value (outer hair cells (OHC); BHK-2 group, high-frequency base of the cochlea)?
Answer: ~ 76%

Question: What about the “hearing loss and hair cell loss after noise exposure (in words)” value [4] of the same compound?
Answer: significantly reduced in a dose-dependent manner

Question: And the “mean number of ANF/habenula perforata” value [5, 7]?
Answer: 82.8 ANF/habenula perforata

Question: And the “mean number of ANF/habenula perforata” value ([5]; BHK-2 group, B group ~9.2)?
Answer: 84.2 ANF/habenula perforata

Question: And the “protection against blast-induced ANF loss (in words)” value [5, 9]?
Answer: completely prevented; also recorded: complete protection

Question: And the “increase of ANF versus blast alone” value ([5]; HK-2 treatment, 25 kHz region)?
Answer: ~ 8 fold

Question: What about the “mean hair cell density, marginal region of the macula of the utricle” value [6, 7] of the same compound?
Answer: 122.8 /0.0108 mm^2

Question: What about the “mean hair cell density, striola region of the macula of the utricle” value [6, 7] of the same compound?
Answer: 111.3 /0.0108 mm^2

Question: And the “mean hair cell density, marginal region of the macula of the utricle” value [6, 8]?
Answer: 122.7 /0.0108 mm^2

Question: And the “mean hair cell density, striola region of the macula of the utricle” value [6, 8]?
Answer: 111.0 /0.0108 mm^2
